Measurements: patent EP0791603A2, “Pure somatostatin antagonist and methods of use thereof” (American Cyanamid Company, priority 1996, dated 1997)
Positions of bridges follow the written chain, without caps; N, C: chain ends. Non-standard residues stand in square brackets, D forms with d. Residues, ends and D or L forms follow the SMILES beside them. Phe(4-NO2) = N[C@@H](Cc1ccc([N+](=O)[O-])cc1)C(=O)O; dPhe(4-NO2) = N[C@H](Cc1ccc([N+](=O)[O-])cc1)C(=O)O; 2Nal = N[C@@H](Cc1ccc2ccccc2c1)C(=O)O; Orn = NCCC[C@H](N)C(=O)O

Legend:
SSTR2 = SSTR2 (Rattus norvegicus, UniProt P30680); test: Competitive binding, displacement of [125I]Tyr11 S-14; set-up: expressed in transfected cells; details: [125I]Tyr11 S-14 250 pM, room temperature 2 hours; for IC50: membrane protein, read-out: SSTR2 Binding Affinity IC50; for Ki: calculated by Cheng and Prusoff, read-out: SSTR2 Binding Affinity Ki
Experimental: In this evaluation the concentration of test compound required to displace 50% of somatostatin, SRIF, from the SRIF receptor subtypes expressed in mammalian cells is measured, i.e., the concentration required to inhibit 50% of [^125I] Tyr^11 S-14 (Amersham) (IC50) from binding to the SRIF receptor subtypes.
Radiolabeled SRIF is mixed with pituitary cells, the test compound is added, the mixture is incubated and the radioactivity is measured as compared to control. Reduced radioactivity indicates successful competitive binding of the test compound to the pituitary cell receptor. The concentration of the test compound in nanomolar units required to displace 50% of SRIF from the pituitary cell receptor is calculated and reported in Table II as the IC50 value. Also calculated is the inhibitory constant, Ki.
Tyr^11S-14 (150,000 cpm at 2000 Ci/mmole, 250 pM final concentration). The binding reaction is initiated by adding 2-60µg of membrane protein in a 170 µL volume. Final reaction volume is 200 µl/well. All incubations are carried out at room temperature for 2 hours. Free radioligand is separated from bound ligand by rapid filtration through a glass fiber filter (IH-201-HA) using an Inotech cell harvester. The filter is then washed several times with cold (4°C) binding buffer lacking BSA and protease inhibitors prior to counting in an LKB gamma master counter (78% efficiency). Whatman GFC filters presoaked in 0.3% polyethylenimine (to decrease background) are used.
The IC50 values and Ki values are calculated using the well-known methods described by Y. Cheng and W. H. Prusoff, Biochem. Pharmacol. 22, 3099-3108 (1973), incorporated herein by reference thereto.

[1] = target: T1, rat somatostatin receptor subtype 2 (SSTR2) (Rattus norvegicus, UniProt P30680); test: Yeast assay, somatostatin agonist activity (growth zone of modified yeast cells on histidine-free agar); format: cell-based; details: rating on a scale of 1-5 from zone of growing cells; S. Cerevisiae LY364
T1 construct: expressed in transfected cells; host or cells: Saccharomyces cerevisiae LY364
Experimental: In this evaluation, yeast cells which have been specifically modified to functionally express rat somatostatin receptor subtype 2 (SSTR2) on their cell surfaces are used. S. Cerevisiae LY364 cells are plated in a standard synthetic agar medium which lacks histidine. In the absence of a somatostatin receptor agonist, the auxotrophic (his3) cells are unable to grow. In the presence of somatostatin, or a somatostatin agonist, the expression of an enzyme (His3p: imidazole-glycerol phosphate dehydratase) which is essential for histidine biosynthesis is induced. The cells become competent to produce histidine, resulting in a zone of growing cells around the applied test compound. The zone is measured and the test compound is given an agonist rating on a scale of 1-5 wherein 1 is minimum agonist activity and 5 is maximum agonist activity.
SCD-ura-trp: • 1) To 500 mL water add: • 1.7 g YNB without amino acids and (NH4)2SO4 • 5.0 g (NH4)2SO4 • 0.7 g CSM-ura-trp • 2) To additional 500 mL water add: 20 g Dextrose • 3) Autoclave separately. Mix.
SCL-ura-trp: • 1) To 500 mL water add: • 1.7 g YNB without amino acids and (NH4)2SO4 • 5.0 g (NH4)2SO4 • 0.7 g CSM-ura-trp • 2) To additional 500 mL water add: 30 mL Lactic Acid • 3) Autoclave separately. Mix.
SCG-ura-trp: • 1) To 500 mL water add: • 1.7 g YNB without amino acids and (NH4)2SO4 • 5.0 g (NH4)2SO4 • 0.7 g CSM-ura-trp • 2) To additional 500 mL water add: 30 g D-Galactose • 3) Autoclave separately. Mix.
SCG-ura-trp-his agar medium, pH 6.8: • 1) To 500 mL water add: • 1.7 g YNB without amino acids and (NH4)2SO4 • 5.0 g (NH4)2SO4 • 0.7 g CSM-ura-trp-his • Stirring Bar • 2) Adjust pH to 6.8-6.9 by dropwise addition of conc. NH4OH • 3) To additional 500 mL water add: 30 g D-Galactose, 20 g Agar • 4) Autoclave separately. • 5) Stir to mix thoroughly. • 6) Equilibrate temperature to 55°C. YNB without amino acids and (NH4)2SO4, CSM-ura-trp, and CSM-ura-trp-his are manufactured by Bio101. Ammonium sulfate ((NH4)2SO4), Dextrose (D-glucose), D-Galactose, and Lactic Acid are manufactured by Sigma.
(§1) • 1) Inoculate 2 mL SCD-ura-trp liquid medium in Falcon 2051 tube with a single colony taken from a plate containing LY364 (MATa ura3-52 leu2 his3 trp1 lys2 ade2 far1:: LYS2 fus1:: FUS1-HIS3 gpal::hisG sst2::ADE2 bearing the SSTR2 expression plasmid, pJH2, and the G protein expression plasmid, pLP82)cells. • 2) Incubate overnight in a roller drum at 30°C.
(§2) Day 2. • 1) Harvest the cells by centrifugation (3 krpm, 5 min, room temp). • 2) Re-suspend with 5 mL of sterile water. • 3) Harvest again by centrifugation. • 4) Re-suspend in 5 mL SCL-ura-trp liquid medium. • 5) Incubate for 6 hours in a roller drum at 30°C. • 6) Harvest the cells again by centrifugation. • 7) Re-suspend in 5 mL SCG-ura-trp liquid medium. • 8) Incubate overnight in a roller drum at 30°C.
(§3) Day 3. • 1) Autoclave SCG-ura-trp-his pH 6.8 agar medium. • 2) Cool to 55°C in water bath. • 3) Add 1 mL of LY364 culture to 1 liter of agar medium. • 4) Stir vigorously for 1 min. • 5) Pour 150 mL each into five 500 cm^2 plates. • 6) Allow to cool on level surface. • 7) Apply test compound.
(§4) On day 3, add 5µL 1 mg/mL S-14 to each plate. Day 5. Begin checking plates for growth around applied compounds. Day 7. Growth in response to somatostatin should be readily observable. Rate extent of growth or inhibition of growth according to rating scale described hereinabove.

[2] = target: T1, rat somatostatin receptor subtype 2 (SSTR2); test: Yeast assay, somatostatin antagonist activity (zone of no growth in presence of S-14); format: cell-based; set-up: key: 1 is minimum antagonist activity; 5 is maximum antagonist activity; -: When no activity is observed, the result is indicated by a dash; details: rating on a scale of 1-5 from zone of no growth; 5µL of 1 mg/mL S-14 added to each plate; S. Cerevisiae LY364
Experimental: To evaluate the somatostatin antagonist activity of a test compound, the above procedure is followed except on day 3, 5µL of 1 mg/mL of somatostatin, S-14, is added to each plate, before applying the test compound. If the test compound is an antagonist of somatostatin, then a zone of no growth will appear within the cell growth zone. This zone of no growth is measured and the test compound is given an antagonist rating on a scale of 1-5 wherein 1 is minimum antagonist activity and 5 is maximum antagonist activity.
The results are shown in Table I. When no activity is observed, the result is indicated by a dash.
as §1, §2, §3, §4

Sequence of SSTR2 (P30680 whole entry): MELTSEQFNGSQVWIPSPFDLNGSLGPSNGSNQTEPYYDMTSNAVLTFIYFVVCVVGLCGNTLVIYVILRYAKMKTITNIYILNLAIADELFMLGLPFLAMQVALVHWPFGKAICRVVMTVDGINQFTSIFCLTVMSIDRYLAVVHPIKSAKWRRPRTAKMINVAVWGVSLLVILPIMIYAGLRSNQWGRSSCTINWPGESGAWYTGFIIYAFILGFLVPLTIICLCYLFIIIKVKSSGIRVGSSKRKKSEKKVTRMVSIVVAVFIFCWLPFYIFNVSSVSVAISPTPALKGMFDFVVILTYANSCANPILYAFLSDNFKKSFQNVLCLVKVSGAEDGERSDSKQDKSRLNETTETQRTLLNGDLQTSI
T1 sequence (P30680 whole entry): as above

Compound | IC50 (SSTR2) | Ki (SSTR2) | Yeast Assay Agonist [1] | Yeast Assay Antagonist [2]
C[C@@H](O)[C@@H]1NC(=O)[C@H](CCCCN)NC(=O)[C@@H](Cc2c[nH]c3ccccc23)NC(=O)[C@H](Cc2ccc(O)cc2)NC(=O)[C@H](NC(=O)[C@@H](N)Cc2ccc(I)cc2)CSSC[C@@H](C(=O)N[C@@H](Cc2ccc(O)cc2)C(N)=O)NC1=O | 0.6 nM | 0.26 nM |  | 
CC(=O)N[C@@H](Cc1ccc(I)cc1)C(=O)N[C@@H]1CSSC[C@@H](C(=O)N[C@H](Cc2ccc(O)cc2)C(N)=O)NC(=O)[C@H]([C@@H](C)O)NC(=O)[C@H](CCCCN)NC(=O)[C@@H](Cc2c[nH]c3ccccc23)NC(=O)[C@H](Cc2ccc(O)cc2)NC1=O | 6 nM | 2.8 nM | - | 4
CC(=O)N[C@@H](Cc1ccc(I)cc1)C(=O)N[C@@H]1CSSC[C@@H](C(=O)N[C@@H](Cc2ccc(O)cc2)C(N)=O)NC(=O)[C@H]([C@@H](C)O)NC(=O)[C@H](CCCCN)NC(=O)[C@@H](Cc2c[nH]c3ccccc23)NC(=O)[C@H](Cc2ccc(O)cc2)NC1=O |  |  | - | 1
C[C@@H](O)[C@@H]1NC(=O)[C@H](CCCCN)NC(=O)[C@@H](Cc2c[nH]c3ccccc23)NC(=O)[C@H](Cc2ccc(O)cc2)NC(=O)[C@H](NC(=O)[C@@H](N)Cc2ccc3ccccc3c2)CSSC[C@@H](C(=O)N[C@@H](Cc2ccc(O)cc2)C(N)=O)NC1=O (H-[2Nal][dC]Y[dW]KTCY-NH2; disulfide 2-7 (inferred); N-terminus assumed) |  |  | - | 1
NCCCC[C@@H]1NC(=O)[C@@H](Cc2c[nH]c3ccccc23)NC(=O)[C@H](Cc2ccc(O)cc2)NC(=O)[C@H](NC(=O)[C@@H](N)Cc2ccc([N+](=O)[O-])cc2)CSSC[C@@H](C(=O)N[C@@H](Cc2ccc3ccccc3c2)C(N)=O)NC(=O)[C@H](CO)NC1=O (H-[Phe(4-NO2)][dC]Y[dW]KSC[2Nal]-NH2; disulfide 2-7) | 10 nM | 4.44 nM |  | 
C[C@@H](O)[C@@H]1NC(=O)[C@H](CCCNC(=N)N)NC(=O)[C@@H](Cc2c[nH]c3ccccc23)NC(=O)[C@H](Cc2ccc(O)cc2)NC(=O)[C@H](NC(=O)[C@@H](N)Cc2ccc([N+](=O)[O-])cc2)CSSC[C@@H](C(=O)N[C@@H](Cc2ccc(O)cc2)C(N)=O)NC1=O (H-[Phe(4-NO2)][dC]Y[dW]RTCY-NH2; disulfide 2-7 (inferred)) |  |  | - | 2
CC(C)[C@@H]1NC(=O)[C@H](CCCN)NC(=O)[C@@H](Cc2c[nH]c3ccccc23)NC(=O)[C@H](Cc2ccc(O)cc2)NC(=O)[C@H](NC(=O)[C@@H](N)Cc2ccc([N+](=O)[O-])cc2)CSSC[C@@H](C(=O)N[C@@H](Cc2ccc(O)cc2)C(N)=O)NC1=O (H-[Phe(4-NO2)][dC]Y[dW][Orn]VCY-NH2; disulfide 2-7) | 113 nM | 50.2 nM |  | 
CC(C)[C@@H]1NC(=O)[C@H](CCCCN)NC(=O)[C@@H](Cc2c[nH]c3ccccc23)NC(=O)[C@H](Cc2ccc(O)cc2)NC(=O)[C@H](NC(=O)[C@H](N)Cc2ccc([N+](=O)[O-])cc2)CSSC[C@@H](C(=O)N[C@@H](Cc2ccc(O)cc2)C(N)=O)NC1=O (H-[dPhe(4-NO2)][dC]Y[dW]KVCY-NH2; disulfide 2-7) | 39 nM | 17.3 nM |  | 
